Data from the NIST ThermoML archive (doi:10.1021/je100256w).

Assay: cn = amount concentration of the nth substance listed, in mol/dm3
Settings: 101 kPa, Liquid, Dip Cell

O=C([O-])c1ccccc1.[Na+] [sodium benzoate] + O
electrical conductivity [S/m]
Settings | 298 K | 303 K
c1 = 1.98e-05 | 1.95e-05 | 1.613e-05
c1 = 3.92e-05 | 3.33e-05 | 3.53e-05
c1 = 5.82e-05 | 4.76e-05 | 5.11e-05
c1 = 7.69e-05 | 5.86e-05 | 6.55e-05
c1 = 9.52e-05 | 7.22e-05 | 7.97e-05
c1 = 0.0001221 | 8.72e-05 | 9.91e-05
c1 = 0.0001567 | 0.00011 | 0.000121
c1 = 0.00019 | 0.0001285 | 0.00013
c1 = 0.0002222 | 0.000145 | 0.000161
c1 = 0.0002533 | 0.000161 | 0.000175
c1 = 0.0002906 | 0.00018 | 0.000199
c1 = 0.0003264 | 0.000198 | 0.000203
c1 = 0.0003607 | 0.000199 | 0.000217
c1 = 0.0004 | 0.000216 | 0.000235
c1 = 0.0004375 | 0.000231 | 0.000254
c1 = 0.0004791 | 0.000245 | 0.000271
c1 = 0.000524 | 0.000266 | 0.000291
c1 = 0.0005663 | 0.000293 | 0.000307
c1 = 0.0006063 | 0.000297 | 0.000324
c1 = 0.0006532 | 0.000314 | 0.000341
c1 = 0.0007055 | 0.000326 | 0.00036
c1 = 0.0007616 | 0.000349 | 0.000379
c1 = 0.0008131 | 0.000366 | 0.000398
c1 = 0.0008669 | 0.000381 | 0.000414
c1 = 0.0009218 | 0.000398 | 0.000432
c1 = 0.000977 | 0.000412 | 0.000443
c1 = 0.001027 | 0.000431 | 0.000456
